From ChEMBL document CHEMBL4118254, “1,2-Diphenoxiethane salts as potent antiplasmodial agents” (Bioorg Med Chem Lett, 2018)

Experiments:
[1] = biological target: T1, Choline kinase (Plasmodium falciparum (isolate 3D7), UniProt Q8IM71); assay: Inhibition of Plasmodium falciparum 3D7 choline kinase expressed in Escherichia coli BL21(DE3) assessed as reduction in phosphocholine formation
T1 sequence (Q8IM71 whole entry): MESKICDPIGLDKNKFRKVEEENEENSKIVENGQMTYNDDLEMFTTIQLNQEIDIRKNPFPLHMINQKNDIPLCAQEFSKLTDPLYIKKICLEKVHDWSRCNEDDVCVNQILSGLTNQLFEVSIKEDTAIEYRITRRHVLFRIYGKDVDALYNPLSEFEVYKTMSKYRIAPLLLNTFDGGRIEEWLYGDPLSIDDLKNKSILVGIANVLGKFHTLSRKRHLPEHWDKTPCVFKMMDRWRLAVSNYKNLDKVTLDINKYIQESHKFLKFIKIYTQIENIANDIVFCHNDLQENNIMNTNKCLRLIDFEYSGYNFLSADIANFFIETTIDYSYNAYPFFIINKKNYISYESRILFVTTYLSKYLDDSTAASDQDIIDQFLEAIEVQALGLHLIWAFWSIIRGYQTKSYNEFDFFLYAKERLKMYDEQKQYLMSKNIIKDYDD

[2] = system: Plasmodium falciparum; assay: Antiplasmodial activity against Plasmodium falciparum Dd2 infected in human erythrocytes after 48 hrs by picogreen-microfluorimetric assay; assay type: functional, organism-based; conditions: Dd2, 48 h
[3] = biological target: Choline kinase alpha (Homo sapiens, UniProt P35790); assay: Inhibition of human choline kinase alpha1 using [methyl-14C]choline as substrate assessed as reduction in rate of incorporation of 14C from [methyl-14C]choline into phosphocholine preincubated for 5 mins followed by substrate addition measured after 10 mins by scintillation counting
Sequence of Choline kinase alpha (P35790 whole entry): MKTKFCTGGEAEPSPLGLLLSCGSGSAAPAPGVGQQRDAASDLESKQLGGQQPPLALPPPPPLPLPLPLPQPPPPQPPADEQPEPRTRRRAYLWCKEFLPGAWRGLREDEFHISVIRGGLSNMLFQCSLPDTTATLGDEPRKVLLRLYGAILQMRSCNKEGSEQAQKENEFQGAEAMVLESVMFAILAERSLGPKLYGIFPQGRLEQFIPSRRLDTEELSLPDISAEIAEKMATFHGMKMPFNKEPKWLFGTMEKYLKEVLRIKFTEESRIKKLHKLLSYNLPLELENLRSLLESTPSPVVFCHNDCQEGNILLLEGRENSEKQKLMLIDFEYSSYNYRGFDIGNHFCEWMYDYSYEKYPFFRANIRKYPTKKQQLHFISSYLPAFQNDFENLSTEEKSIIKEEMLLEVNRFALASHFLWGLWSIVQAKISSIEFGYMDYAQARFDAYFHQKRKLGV

[4] = system: Plasmodium falciparum; assay: Antiplasmodial activity against Plasmodium falciparum 3D7 infected in human erythrocytes after 72 hrs by SYBR green 1-based fluorimetric assay; assay type: functional, organism-based; conditions: 3D7, 72 h
[5] = Inhibition of Plasmodium falciparum choline kinase using [methyl-14C]choline as substrate assessed as reduction in rate of incorporation of 14C from [methyl-14C]choline into phosphocholine preincubated for 5 mins followed by substrate addition measured after 10 mins by liquid scintillation counter
[6] = Inhibition of Plasmodium falciparum choline kinase using [1-14C]ethanolamine as substrate assessed as reduction in rate of incorporation of […] preincubated for 5 mins followed by substrate addition measured after 10 mins by liquid scintillation counter

Structure (SMILES) | IC50 [1] [nM] | IC50 [2] [nM] | IC50 [3] [nM] | IC50 [4] [nM] | IC50 [5] [nM] | IC50 ([6]; read-out: IC50) [nM] | IC50 [6]
CN(C)c1cc[n+](Cc2ccc(CCCCc3ccc(C[n+]4ccc(N(C)C)cc4)cc3)cc2)cc1 | 106000 | 3.5 | 780 | 3.5 | 106000 | – | –
CN(C)c1cc[n+](Cc2ccc(-c3ccc(C[n+]4ccc(N5CCCC5)cc4)cc3)cc2)cc1 | – | – | – | – | 276000 | 12000 | –
CN(C)c1cc[n+](Cc2ccc(CCCCc3ccc(C[n+]4ccc(N5CCCC5)cc4)cc3)cc2)cc1 | – | – | – | 3 | 103000 | 6000 | –
c1ccc2c(c1)c(N1CCCCCC1)cc[n+]2Cc1ccc(OCCOc2ccc(C[n+]3ccc(N4CCCCCC4)c4ccccc43)cc2)cc1 | – | – | – | 142 | 2360 | > 15000 | –
CN(c1ccccc1)c1cc[n+](Cc2ccc(OCCOc3ccc(C[n+]4ccc(N(C)c5ccccc5)c5ccc(Cl)cc54)cc3)cc2)c2cc(Cl)ccc12 | – | – | – | 177 | – | – | –
OC1C[N+]2(Cc3ccc(OCCOc4ccc(C[N+]56CCC(CC5)C(O)C6)cc4)cc3)CCC1CC2 (stereo not given) | – | – | – | 1690 | – | – | –
CN(c1ccccc1)c1cc[n+](Cc2ccc(OCCOc3ccc(C[n+]4ccc(N(C)c5ccccc5)c5ccccc54)cc3)cc2)c2ccccc12 | – | – | – | 162 | – | – | –
CN(c1ccc(Cl)cc1)c1cc[n+](Cc2ccc(OCCOc3ccc(C[n+]4ccc(N(C)c5ccc(Cl)cc5)c5ccc(Cl)cc54)cc3)cc2)c2cc(Cl)ccc12 | – | – | – | 369 | 6470 | – | –
CN(c1ccc(Cl)cc1)c1cc[n+](Cc2ccc(OCCOc3ccc(C[n+]4ccc(N(C)c5ccc(Cl)cc5)c5ccccc54)cc3)cc2)c2ccccc12 | – | – | – | 149 | 2520 | – | –
[Br-].[Br-].c1cc(OCCOc2ccc(C[n+]3ccc(N4CCCC4)cc3)cc2)ccc1C[n+]1ccc(N2CCCC2)cc1 | – | – | – | 16 | 50000 | – | Not Active
c1cc(OCCOc2ccc(C[N+]34CCC(CC3)CC4)cc2)ccc1C[N+]12CCC(CC1)CC2 | – | – | – | 177 | – | – | –
Clc1ccc2c(N3CCCC3)cc[n+](Cc3ccc(OCCOc4ccc(C[n+]5ccc(N6CCCC6)c6ccc(Cl)cc65)cc4)cc3)c2c1 | – | – | – | 59 | 14100 | – | –
CN(C)c1cc[n+](Cc2ccc(OCCOc3ccc(C[n+]4ccc(N(C)C)cc4)cc3)cc2)cc1.[Br-].[Br-] | – | – | – | 16 | ≥ 100000 | – | Not Active
Clc1ccc2c(N3CCCCCC3)cc[n+](Cc3ccc(OCCOc4ccc(C[n+]5ccc(N6CCCCCC6)c6ccc(Cl)cc65)cc4)cc3)c2c1 | – | – | – | 35 | 10900 | > 50000 | –
C[N+]1(C)CCOC(O)(c2ccc(-c3ccc(C4(O)C[N+](C)(C)CCO4)cc3)cc2)C1 (stereo not given) [HEMICHOLINIUM-3] | 250000 | > 50000 | – | > 50000 | 250000 | – | –
CN(c1ccc(Cl)cc1)c1cc[n+](Cc2ccc(-c3ccc(C[n+]4ccc(N(C)c5ccc(Cl)cc5)c5ccccc54)cc3)cc2)c2ccccc12 [RSM-932A] | 1750 | 26.5 | – | 26.5 | 1750 | – | –
